# Test results published in patent US20240002429A1, “PRODRUG OF 5a-HYDROXY-6ß-[2-(1H-IMIDAZOL-4-YL)ETHYLAMINO]CHOLESTAN-3ß-OL AND PHARMACEUTICAL COMPOSITIONS COMPRISING SAME FOR USE IN THE TREATMENT OF CANCER” (priority 2020, published 2024).
# pIC50: −log10 of the molar value. Like-named read-outs stand apart in the source and are kept apart here.
# Tested on: 4T1 cells
# Assay: Cytotoxicity on 4T1 cells, LDH
# Format: cell-based, murine
# Conditions: Mus musculus, 4T1, LDH, 48 h
# Description: The cellular viability tests were carried out on murine mammary tumor 4T1 cells characterized as negative triples (HER2−, ER−, PR−).
# For this experiment, a cell culture medium was prepared. The culture medium consists of Dulbecco's Modified Eagle Medium (DMEM, marketed by Westburg under the reference LO BE12-604F), comprising 4.5 g/L glucose with L-glutamine, to which 10% of fetal calf serum (FCS) and 50 U/mL of penicillin/streptomycin are added. The 4T1 cells are introduced into this culture medium.
# 96-well plates were seeded with 2000 4T1 cells per well. After 72 hours (h) of culture in normal conditions, i.e. in an incubator at a temperature of 37° C. at 5% CO2, the 4T1 cells are treated for 48 h with DX101, DX107, DX113, DX117, DX119, DX121 or DX131 at 100 nM, 1 μM, 2.5 μM and 10 μM. A control condition (CTL) is also carried out in parallel using the protocol described above but without treatment with the molecules DX101, DX107, DX113, DX117, DX119, DX121, DX131 or DX133.
# For the second method, the percentage viability is determined using assay of the activity of the enzyme LDH (lactate dehydrogenase) in the cellular supernatants using the kit non radioactive cytotoxicity assay kit (Promega). LDH is an enzyme released in the supernatant of dead cells. The higher the LDH activity in the supernatant, the greater is the cell death. In this enzyme test, the LDH released converts a violet tetrazolium salt to formazan, of red color, absorbing at 490 nm. The intensity of the red color is proportional to the number of dead cells. After 48 h of treatment, the supernatants are transferred to a new 96-well plate and are incubated for 30 minutes in the presence of the substrate mix at room temperature. The reaction is stopped using the stop buffer and the absorbance is determined at 490 nm. The percentage cell death is determined here using a control 100% of maximum activity of LDH (carried out with untreated cells incubated in the presence of the lysis solution for 45 minutes at 37° C. just before adding the substrate mix), and the cellular viability in each well is then deduced from this percentage. IC50 is then determined as explained in the preceding paragraph.
structure (smiles),measurement,setting,value
"CCC(=O)O[C@H]1CC[C@]2(C)[C@H]3CC[C@]4(C)[C@@H]([C@H](C)CCCC(C)C)CC[C@H]4[C@@H]3C[C@@H](NCCc3c[nH]cn3)[C@@]2(O)C1 [DX107, 5α-hydroxy-6β-[2-(1H-imidazol-4-yl)ethylamino]cholestan-3β-yl propionate]",IC50,"log of IC50 in μM, read-out: Mean LogIC50 (±SEM) (converted)",3.31 µM
same,pIC50,read-out: IC50,5.48
